The supplement of paper PMC4862054

Experiments:
Conditions in all cases: incubation time: 72 h
[1] = test system: HDQ-P1; experiment: normalised viability (% of control), CellTiter-Blue; higher = more viable cells (about 100 = DMSO control)
Procedure: (§1)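 DSRT, CellTiter-Blue viability, 72 h incubation. Signal is normalised to DMSO and benzethonium chloride controls. Value is the normalised response at dose 3.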

[2] = test system: MDA-MB-453; experiment: as above
Procedure: as §1

[3] = test system: CAL-51; experiment: as above
Procedure: as §1

[4] = test system: MDA-MB-231; experiment: as above
Procedure: as §1

[5] = test system: BT-549; experiment: as above
Procedure: as §1

[6] = test system: MFM-223; experiment: as above
Procedure: as §1

[7] = test system: CAL-148; experiment: as above
Procedure: as §1

[8] = test system: HCC1143; experiment: as above
Procedure: as §1

[9] = test system: HCC1599; experiment: as above
Procedure: as §1

[10] = test system: BT-474; experiment: as above
Procedure: as §1

[11] = test system: MDA-MB-436; experiment: as above
Procedure: as §1

[12] = test system: Hs578T; experiment: as above
Procedure: as §1

[13] = test system: CAL-85-1; experiment: as above
Procedure: as §1

[14] = test system: CAL-120; experiment: as above
Procedure: as §1

[15] = test system: DU-4475; experiment: as above
Procedure: as §1

[16] = test system: MDA-MB-468; experiment: as above
Procedure: as §1

[17] = test system: SK-BR-3; experiment: as above
Procedure: as §1

[18] = test system: HCC1937; experiment: as above
Procedure: as §1

[19] = test system: MFM-223; experiment: drug sensitivity score (DSS), CellTiter-Blue viability (DSS (AUC-based score)); higher = stronger viability inhibition; extreme values may be limits of the assay
Procedure: (§2)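 DSRT with the CellTiter-Blue (resazurin reduction) viability readout, fluorescence 560/590 nm, 72 h incubation. Plates were normalised to DMSO and benzethonium chloride controls. DSS is computed from the area under the fitted dose-response curve (5 or 9 concentrations).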

[20] = test system: HCC1143; experiment: as above
Procedure: as §2

[21] = test system: CAL-120; experiment: as above
Procedure: as §2

[22] = test system: DU-4475; experiment: as above
Procedure: as §2

[23] = test system: HCC1937; experiment: as above
Procedure: as §2

Structure (SMILES): COc1cc2c(Oc3ccc(NC(=O)C4(C(=O)Nc5ccc(F)cc5)CC4)cc3F)ccnc2cc1OCCCN1CCOCC1 [Foretinib]
- normalised viability ([1]; 1 nM): 92.4%
- normalised viability ([2]; 1 nM): 91.6%
- normalised viability ([3]; 1 nM): 93.2%
- normalised viability ([4]; 10 nM): 95.1%
- normalised viability ([5]; 10 nM): 107%
- normalised viability ([6]; 10 nM): 80%
- normalised viability ([7]; 1 nM): 108%
- normalised viability ([8]; 10 nM): 99.9%
- normalised viability ([9]; 10 nM): 95.3%
- normalised viability ([10]; 10 nM): 109%
- normalised viability ([11]; 10 nM): 91.8%
- normalised viability ([12]; 10 nM): 97.5%
- normalised viability ([13]; 1 nM): 100%
- normalised viability ([14]; 10 nM): 89%
- normalised viability ([15]; 1 nM): 96.6%
- normalised viability ([16]; 10 nM): 134%
- normalised viability ([17]; 10 nM): 78.8%
- normalised viability ([18]; 10 nM): 97.7%
- drug sensitivity score [19]: 9.7
- drug sensitivity score [20]: 0
- drug sensitivity score [21]: 1.14
- drug sensitivity score [22]: 1.75
- drug sensitivity score [23]: 0

Structure (SMILES): NC(=O)NO [Hydroxyurea]
- normalised viability ([1]; 100 nM): 108%
- normalised viability ([2]; 100 nM): 101%
- normalised viability ([3]; 100 nM): 111%
- normalised viability ([4]; 1000 nM): 98.2%
- normalised viability ([5]; 1000 nM): 103%
- normalised viability ([6]; 1000 nM): 96.9%
- normalised viability ([7]; 100 nM): 96.8%
- normalised viability ([8]; 1000 nM): 106%
- normalised viability ([9]; 1000 nM): 117%
- normalised viability ([10]; 1000 nM): 115%
- normalised viability ([11]; 1000 nM): 106%
- normalised viability ([12]; 1000 nM): 98.2%
- normalised viability ([13]; 100 nM): 100%
- normalised viability ([14]; 1000 nM): 103%
- normalised viability ([15]; 100 nM): 119%
- normalised viability ([16]; 1000 nM): 109%
- normalised viability ([17]; 1000 nM): 101%
- normalised viability ([18]; 1000 nM): 91.4%
- drug sensitivity score [19]: 0
- drug sensitivity score [20]: 0
- drug sensitivity score [21]: 0
- drug sensitivity score [22]: 0
- drug sensitivity score [23]: 2.94

Structure (SMILES): O=NN(CCCl)C(=O)NC1CCCCC1 [Lomustine]
- normalised viability ([1]; 10 nM): 113%
- normalised viability ([2]; 10 nM): 95.5%
- normalised viability ([3]; 10 nM): 115%
- normalised viability ([4]; 100 nM): 100%
- normalised viability ([5]; 100 nM): 114%
- normalised viability ([6]; 100 nM): 89.5%
- normalised viability ([7]; 10 nM): 93.9%
- normalised viability ([8]; 100 nM): 93.2%
- normalised viability ([9]; 100 nM): 101%
- normalised viability ([10]; 100 nM): 111%
- normalised viability ([11]; 100 nM): 102%
- normalised viability ([12]; 100 nM): 94.6%
- normalised viability ([13]; 10 nM): 93.8%
- normalised viability ([14]; 100 nM): 97%
- normalised viability ([15]; 10 nM): 109%
- normalised viability ([16]; 100 nM): 101%
- normalised viability ([17]; 100 nM): 97.5%
- normalised viability ([18]; 100 nM): 87.3%
- drug sensitivity score [19]: 0
- drug sensitivity score [20]: 0
- drug sensitivity score [21]: 0
- drug sensitivity score [22]: 0
- drug sensitivity score [23]: 0

Structure (SMILES): O=C(O)CC[C@H]1CC[C@@](c2cc(F)ccc2F)(S(=O)(=O)c2ccc(Cl)cc2)CC1 [MK-0752]
- normalised viability ([1]; 1 nM): 96.2%
- normalised viability ([2]; 1 nM): 111%
- normalised viability ([3]; 1 nM): 96.3%
- normalised viability ([4]; 10 nM): 98%
- normalised viability ([5]; 10 nM): 104%
- normalised viability ([6]; 10 nM): 97.1%
- normalised viability ([7]; 1 nM): 107%
- normalised viability ([8]; 10 nM): 98%
- normalised viability ([9]; 10 nM): 106%
- normalised viability ([10]; 10 nM): 114%
- normalised viability ([11]; 10 nM): 103%
- normalised viability ([12]; 10 nM): 88.6%
- normalised viability ([13]; 1 nM): 96%
- normalised viability ([14]; 10 nM): 95.1%
- normalised viability ([15]; 1 nM): 105%
- normalised viability ([16]; 10 nM): 97.6%
- normalised viability ([17]; 10 nM): 93.3%
- normalised viability ([18]; 10 nM): 88.5%
- drug sensitivity score [19]: 0
- drug sensitivity score [20]: 0
- drug sensitivity score [21]: 0
- drug sensitivity score [22]: 0
- drug sensitivity score [23]: 0

Structure (SMILES): NC1(c2ccc(-c3nc4ccn5c(=O)[nH]nc5c4cc3-c3ccccc3)cc2)CCC1 [MK-2206]
- normalised viability ([1]; 1 nM): 103%
- normalised viability ([2]; 1 nM): 117%
- normalised viability ([3]; 1 nM): 100%
- normalised viability ([4]; 10 nM): 104%
- normalised viability ([5]; 10 nM): 107%
- normalised viability ([6]; 10 nM): 105%
- normalised viability ([7]; 1 nM): 105%
- normalised viability ([8]; 10 nM): 121%
- normalised viability ([9]; 10 nM): 97.4%
- normalised viability ([10]; 10 nM): 112%
- normalised viability ([11]; 10 nM): 107%
- normalised viability ([12]; 10 nM): 98.5%
- normalised viability ([13]; 1 nM): 92.2%
- normalised viability ([14]; 10 nM): 106%
- normalised viability ([15]; 1 nM): 107%
- normalised viability ([16]; 10 nM): 109%
- normalised viability ([17]; 10 nM): 79%
- normalised viability ([18]; 10 nM): 80.7%
- drug sensitivity score [19]: 4.16
- drug sensitivity score [20]: 0
- drug sensitivity score [21]: 0
- drug sensitivity score [22]: 0
- drug sensitivity score [23]: 0

Structure (SMILES): NC(=O)c1cccc2cn(-c3ccc([C@@H]4CCCNC4)cc3)nc12 [MK-4827]
- normalised viability ([1]; 10 nM): 105%
- normalised viability ([2]; 10 nM): 91.1%
- normalised viability ([3]; 10 nM): 110%
- normalised viability ([4]; 100 nM): 97.5%
- normalised viability ([5]; 100 nM): 97.1%
- normalised viability ([6]; 100 nM): 90.6%
- normalised viability ([7]; 10 nM): 98.5%
- normalised viability ([8]; 100 nM): 87.2%
- normalised viability ([9]; 100 nM): 93.8%
- normalised viability ([10]; 100 nM): 104%
- normalised viability ([11]; 100 nM): 95.1%
- normalised viability ([12]; 100 nM): 92.1%
- normalised viability ([13]; 10 nM): 101%
- normalised viability ([14]; 100 nM): 87.3%
- normalised viability ([15]; 10 nM): 90.9%
- normalised viability ([16]; 100 nM): 95%
- normalised viability ([17]; 100 nM): 78%
- normalised viability ([18]; 100 nM): 72.9%
- drug sensitivity score [19]: 0
- drug sensitivity score [20]: 3.49
- drug sensitivity score [21]: 0
- drug sensitivity score [22]: 6.73
- drug sensitivity score [23]: 8.54

Structure (SMILES): N[C@@H](Cc1ccc(N(CCCl)CCCl)cc1)C(=O)O [Melphalan]
- normalised viability ([1]; 0.99 nM): 97.6%
- normalised viability ([2]; 0.99 nM): 108%
- normalised viability ([3]; 0.99 nM): 104%
- normalised viability ([4]; 9.9 nM): 99.8%
- normalised viability ([5]; 9.9 nM): 110%
- normalised viability ([6]; 9.9 nM): 89.9%
- normalised viability ([7]; 0.99 nM): 92.4%
- normalised viability ([8]; 9.9 nM): 74.2%
- normalised viability ([9]; 9.9 nM): 96.1%
- normalised viability ([10]; 9.9 nM): 99.3%
- normalised viability ([11]; 9.9 nM): 87.2%
- normalised viability ([12]; 9.9 nM): 75.8%
- normalised viability ([13]; 0.99 nM): 87.5%
- normalised viability ([14]; 9.9 nM): 73.6%
- normalised viability ([15]; 0.99 nM): 105%
- normalised viability ([16]; 9.9 nM): 108%
- normalised viability ([17]; 9.9 nM): 86.9%
- normalised viability ([18]; 9.9 nM): 102%
- drug sensitivity score [19]: 0
- drug sensitivity score [20]: 0
- drug sensitivity score [21]: 0
- drug sensitivity score [22]: 0
- drug sensitivity score [23]: 9.6

Structure (SMILES): Cc1c(C(=O)Nc2ccc(N3C[C@@H](C)O[C@@H](C)C3)nc2)cccc1-c1ccc(OC(F)(F)F)cc1 [NVP-LDE225]
- normalised viability ([1]; 10 nM): 83.5%
- normalised viability ([2]; 10 nM): 110%
- normalised viability ([3]; 10 nM): 99.7%
- normalised viability ([4]; 100 nM): 99%
- normalised viability ([5]; 100 nM): 97%
- normalised viability ([6]; 100 nM): 108%
- normalised viability ([7]; 10 nM): 108%
- normalised viability ([8]; 100 nM): 92.5%
- normalised viability ([9]; 100 nM): 102%
- normalised viability ([10]; 100 nM): 93.3%
- normalised viability ([11]; 100 nM): 73.2%
- normalised viability ([12]; 100 nM): 72.5%
- normalised viability ([13]; 10 nM): 102%
- normalised viability ([14]; 100 nM): 99.7%
- normalised viability ([15]; 10 nM): 103%
- normalised viability ([16]; 100 nM): 113%
- normalised viability ([17]; 100 nM): 71.1%
- normalised viability ([18]; 100 nM): 97.2%
- drug sensitivity score [19]: 0
- drug sensitivity score [20]: 0
- drug sensitivity score [21]: 0
- drug sensitivity score [22]: 0
- drug sensitivity score [23]: 0
